Laboratory results from ChEMBL document CHEMBL4665693, “Amentotaxins C-V, Structurally Diverse Diterpenoids from the Leaves and Twigs of the Vulnerable Conifer Amentotaxus argotaenia and Their Cytotoxic Effects” (J Nat Prod, 2020).
pIC50: −log10 of the molar value.

Key:
Format in all cases: functional, cell-based
HCT-116 = assay: Cytotoxicity against human HCT-116 cells assessed as reduction in cell viability incubated for 48 hrs by MTT assay; settings: HCT-116, 48 h
Huh-7 = assay: Cytotoxicity against human Huh-7 cells assessed as reduction in cell viability incubated for 48 hrs by MTT assay; settings: Huh-7, 48 h
SK-OV-3 = assay: Cytotoxicity against human SK-OV-3 cells assessed as reduction in cell viability incubated for 48 hrs by MTT assay; settings: SK-OV-3, 48 h
MDA-MB-231 = assay: Cytotoxicity against human MDA-MB-231 cells assessed as reduction in cell viability incubated for 48 hrs by MTT assay; settings: MDA-MB-231, 48 h
A549 = assay: Cytotoxicity against human A549 cells assessed as reduction in cell viability incubated for 48 hrs by MTT assay; settings: A549, 48 h
HeLa = assay: Cytotoxicity against human HeLa cells assessed as reduction in cell viability incubated for 48 hrs by MTT assay

C=C1[C@H](O)C[C@@H]2[C@@](C)(CO)CCC[C@@]2(C)[C@@H]1C[C@H]1OC(=O)C=C1C
pIC50 (HCT-116): < 5.00 | pIC50 (Huh-7): < 5.00 | pIC50 (SK-OV-3): < 5.00 | pIC50 (MDA-MB-231): 5.80 | pIC50 (A549): < 5.00 | pIC50 (HeLa): < 5.00

C=C1C(=O)[C@]23CC[C@@H]4[C@@](C)(CO)CCC[C@@]4(C)[C@@H]2CC[C@H]1C3
pIC50 (HCT-116): 5.54 | pIC50 (Huh-7): 5.01 | pIC50 (SK-OV-3): 5.16 | pIC50 (MDA-MB-231): 5.00 | pIC50 (A549): 5.09 | pIC50 (HeLa): < 5.00

C=C1[C@H](O)C[C@@H]2[C@@](C)(CO)CCC[C@@]2(C)[C@@H]1C/C=C(\C)C=O
pIC50 (HCT-116): < 5.00 | pIC50 (Huh-7): < 5.00 | pIC50 (SK-OV-3): < 5.00 | pIC50 (MDA-MB-231): 5.82 | pIC50 (A549): < 5.00 | pIC50 (HeLa): < 5.00

C=C1C(=O)[C@]23CC[C@H]4[C@@](C)(CC[C@@H](O)[C@@]45CO5)[C@@H]2CC[C@H]1C3
pIC50 (HCT-116): 5.72 | pIC50 (Huh-7): 5.39 | pIC50 (SK-OV-3): 5.54 | pIC50 (MDA-MB-231): 5.17 | pIC50 (A549): 5.01 | pIC50 (HeLa): 5.29

C=C1C[C@@]23C[C@@H]1CC[C@H]2[C@]1(C)CCC[C@@](C)(C(=O)O)[C@H]1[C@@H](O)[C@@H]3O
pIC50 (HCT-116): < 5.00 | pIC50 (Huh-7): < 5.00 | pIC50 (SK-OV-3): < 5.00 | pIC50 (MDA-MB-231): < 5.00 | pIC50 (A549): < 5.00 | pIC50 (HeLa): < 5.00

CC(=O)O[C@H]1C(=O)[C@@]2(C)[C@H]([C@H](OC(=O)c3ccccc3)[C@]3(O)C[C@H](OC(=O)[C@H](O)[C@@H](NC(=O)c4ccccc4)c4ccccc4)C(C)=C1C3(C)C)[C@]1(OC(C)=O)CO[C@@H]1C[C@@H]2O [PACLITAXEL]
pIC50 (Huh-7): 8.30 | pIC50 (HeLa): 8.40

CC(C)c1cc2c(cc1O)[C@@]1(C)CC[C@H](O)C(C)(C)[C@@H]1CC2=O
pIC50 (HCT-116): < 5.00 | pIC50 (Huh-7): < 5.00 | pIC50 (SK-OV-3): < 5.00 | pIC50 (MDA-MB-231): 5.80 | pIC50 (A549): < 5.00 | pIC50 (HeLa): < 5.00

C=C1[C@H](O)C[C@@H]2[C@@](C)(CO)CCC[C@@]2(C)[C@@H]1/C=C/C(C)=O
pIC50 (HCT-116): < 5.00 | pIC50 (Huh-7): < 5.00 | pIC50 (SK-OV-3): < 5.00 | pIC50 (MDA-MB-231): 5.52 | pIC50 (A549): < 5.00 | pIC50 (HeLa): < 5.00
